Measurements published in patent US6514997B2, “Antipicornaviral compounds and compositions, their pharmaceutical uses, and materials for their synthesis” (Agouron Pharmaceuticals, Inc., priority 1999, dated 2003).
Read-outs that look alike come from different tables or passages of the source.

How the values were obtained:
[1] = molecular target: T1, Recombinant rhinovirus 3C protease, serotype 14 (Human rhinovirus 14, UniProt P03303); assay: Inhibition of rhinovirus 3C protease (FRET assay, kobs/[I]), serotype 14; type: biochemical; conditions: pH 7.6; HRV-14; read-out: kobs/[I] (3C protease inhibition activity)
T1 construct: Recombinant rhinovirus 3C proteases; made in house
T1 sequence (P03303 1538-1719): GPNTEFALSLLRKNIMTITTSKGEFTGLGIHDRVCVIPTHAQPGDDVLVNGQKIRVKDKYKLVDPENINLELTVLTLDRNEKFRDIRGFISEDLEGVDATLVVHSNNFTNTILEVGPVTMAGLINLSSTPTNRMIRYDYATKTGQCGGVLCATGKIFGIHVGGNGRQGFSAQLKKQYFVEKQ
Method in brief: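 Enzyme-start FRET assay with ~1 μM DABCYL/EDANS peptide substrate and 50-100 nM recombinant protease in 50 mM tris pH 7.6, 1 mM EDTA, 2% DMSO. Cleavage followed as fluorescence increase; kobs/[I] derived from progress curves.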

HRV-14 = assay: Antirhinoviral H1-HeLa cell culture assay (XTT cell protection, EC50), HRV-14; type: cell-based, human rhinovirus (HRV) serotype-14 in H1-HeLa cells; conditions: Rhinovirus B, HRV14, H1-HeLa
Method in brief: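 H1-HeLa cells were infected with HRV-14 at m.o.i. 0.13, or mock-infected, and incubated with compound for two days. Cell protection was read by XTT/PMS formazan absorbance at 450/650 nm to give EC50. CC50 came from mock-infected cells, and TI = CC50/EC50.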

[2] = system: strains of human rhinovirus (HRV); assay: Antirhinoviral H1-HeLa cell culture assay (XTT cell protection, EC50), other HRV strains; type: cell-based, human rhinovirus in H1-HeLa cells
Protocol: Antirhinoviral H1-HeLa Cell Culture Assay:
In this cell protection assay, the ability of compounds to protect cells against HRV infection was measured by the XTT dye reduction method, which is described in Weislow et al., J. Natl. Cancer Inst. (1989), vol. 81, 577-586. H1-HeLa cells were infected with HRV-14 at a multiplicity of infection (m.o.i.) of 0.13 (virus particles/cell) or mock-infected with medium only. Infected or mock-infected cells were resuspended at 8×10^5 cells per mL, and incubated with appropriate concentrations of the compounds to be tested. Two days later, XTT/PMS was added to test plates and the amount of formazan produced was quantified spectrophotometrically at 450/650 nm. […] The therapeutic index (TI) was calculated by dividing the CC50 value by the EC50 value.
All strains of human rhinovirus (HRV) for use in this assay were purchased from American Type Culture Collection (ATCC), except for HRV serotype-14 (produced from the infectious cDNA clone constructed by Dr. Robert Rueckert, Institute for Molecular Virology, University of Wisconsin, Madison, Wis.). HRV stocks were propagated and viral assays were performed in H1-HeLa cells (ATCC). Cells were grown in minimal essential medium with 10% fetal bovine serum, available from Life Technologies (Gaithersburg, Md.).

[3] = Cytotoxicity (CC50) in mock-infected H1-HeLa cells, XTT dye reduction; type: cell-based, human; conditions: human, H1-HeLa cells, mock-infected; line of HRV-14
Method in brief: (§1)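 H1-HeLa cells mock-infected, read by XTT/PMS formazan at 450/650 nm.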

H1-HeLa cells = assay: as above; type: cell-based, human
Method in brief: as §1

[4] = H1-HeLa, HRV-1A, read-out: EC50
[5] = Human rhinovirus sp., HRV3, H1-HeLa, HRV-3, read-out: EC50
[6] = Human rhinovirus sp., HRV9, H1-HeLa, HRV-9, read-out: EC50
[7] = Human rhinovirus sp., HRV10, H1-HeLa, HRV-10, read-out: EC50
[8] = Human rhinovirus sp., HRV16, H1-HeLa, HRV-16, read-out: EC50
[9] = Human rhinovirus sp., HRV39, H1-HeLa, HRV-39, read-out: EC50
[10] = Human rhinovirus sp., HRV87, H1-HeLa, HRV-87, read-out: EC50
[11] = Human rhinovirus sp., HRV25, H1-HeLa, HRV-25, read-out: EC50

SMILES | kinact/KI [1] | EC50 (HRV-14) | EC50 [2, 4] | EC50 ([2]; H1-HeLa, HRV-2, read-out: EC50) | EC50 [2, 5] | EC50 [2, 6] | EC50 [2, 7] | EC50 [2, 8] | EC50 [2, 9] | EC50 [2, 10] | CC50 at 2 days [3] | CC50 (H1-HeLa cells; line of HRV-2) | CC50 (H1-HeLa cells; line of HRV-3) | CC50 (H1-HeLa cells; line of HRV-9) | CC50 (H1-HeLa cells; line of HRV-10) | CC50 (H1-HeLa cells; line of HRV-16) | CC50 (H1-HeLa cells; line of HRV-25) | CC50 (H1-HeLa cells; line of HRV-39) | CC50 (H1-HeLa cells; line of HRV-87) | EC50 [2, 11] | other results
CCOC(=O)/C=C/[C@H](C[C@@H]1CCNC1=O)NC(=O)[C@@H]1CCc2ccc(NC(=O)c3cc(C)on3)c(=O)n21 [Compound 37, trans-(3′S,3′″S,4S)-4-({6′-[(5″-Methylisoxazole-3″-carbonyl)amino]-5′-oxo-1′,2′,3′,5′-tetrahydroindolizine-3′-carbonyl}amino)-5-(2′″-oxopyrrolidin-3′″-yl)-pent-2-enoic Acid Ethyl Ester] | 177000 M⁻¹ s⁻¹ | 162 nM | 108 nM | 37 nM | 43 nM | 121 nM | 41 nM | 72 nM | 16 nM | 58 nM | > 10 µM | > 10 µM | > 10 µM | > 10 µM | > 10 µM | > 10 µM | > 10 µM | > 10 µM | > 10 µM | – | EC50 ([2]; Human rhinovirus sp., HRV25, H1-HeLa): 162 nM; CC50 (H1-HeLa cells; line of HRV-1A): > 10 µM
CCOC(=O)/C=C/[C@H](C[C@@H]1CCNC1=O)NC(=O)[C@@H]1CCc2c(Cl)cc(NC(=O)c3cc(C)on3)c(=O)n21 [Compound 39, trans-(3′S,3′″S,4S)-4-({8′-Chloro-6′-[(5″-methylisoxazole-3″-carbonyl)amino]-5′-oxo-1′,2′,3′,5′-tetrahydroindolizine-3′-carbonyl}amino)-5-(2′″-oxopyrrolidin-3′″-yl)-pent-2-enoic Acid Ethyl Ester] | 200000 M⁻¹ s⁻¹ | 40 nM | 42 nM | 16 nM | 39 nM | 48 nM | 88 nM | 57 nM | 48 nM | 17 nM | > 10 µM | > 10 µM | > 10 µM | > 10 µM | > 10 µM | > 10 µM | > 10 µM | > 10 µM | > 10 µM | 107 nM | CC50 (H1-HeLa cells; line of HRV-1A): > 10 µM
C#CC[C@@H](C(=O)N[C@H](/C=C/C(=O)OC1CCCC1)C[C@@H]1CCNC1=O)n1cccc(NC(=O)c2cc(C)on2)c1=O [Compound 40, trans-(2′S,3′″″S,4S)-4-[2′-(3″-{[1′″-(5″″-Methylisoxazol-3″″-yl)methanoyl]amino}-2′″-oxo-2′″H-pyridin-1′″-yl)pent-4″-ynoylamino]-5-(2′″″-oxopyrrolidin-3′″″-yl)pent-2-enoic Acid Cyclopentyl Ester] | 186000 M⁻¹ s⁻¹ | 27 nM | – | 52 nM | 56 nM | 219 nM | – | 177 nM | 163 nM | 83 nM | > 10 µM | > 10 µM | > 10 µM | > 10 µM | – | > 10 µM | > 10 µM | > 10 µM | > 10 µM | 490 nM | EC50 ([2]; H1-HeLa, HRV-23, read-out: EC50): 55 nM; EC50 ([2]; Human rhinovirus sp., H1-HeLa, HRV-Hanks, read-out: EC50): 115 nM; EC50 ([2]; Human rhinovirus sp., HRV11, H1-HeLa, HRV-11, read-out: EC50): 6 nM; EC50 ([2]; Human rhinovirus sp., HRV13, H1-HeLa, HRV-13, read-out: EC50): 148 nM; EC50 ([2]; Human rhinovirus sp., HRV19, H1-HeLa, HRV-19, read-out: EC50): 60 nM; EC50 ([2]; Human rhinovirus sp., HRV78, H1-HeLa, HRV-78, read-out: EC50): 123 nM; CC50 (H1-HeLa cells; line of HRV-11): > 10 µM; CC50 (H1-HeLa cells; line of HRV-13): > 10 µM; CC50 (H1-HeLa cells; line of HRV-19): > 10 µM; CC50 (H1-HeLa cells; line of HRV-23): > 10 µM; CC50 (H1-HeLa cells; line of HRV-78): > 10 µM; CC50 (H1-HeLa cells; line of HRV-Hanks): > 10 µM
C#CC[C@@H](C(=O)N[C@H](/C=C(\C)C(=O)OCC)C[C@@H]1CCNC1=O)n1cccc(NC(=O)c2cc(C)on2)c1=O [Compound 44, trans-(2′S,3′″″S,4S)-2-Methyl-4-[2′-(3″-{[1′″-(5″″-methylisoxazol-3″″-yl)methanoyl]amino}-2′″-oxo-2′″H-pyridin-1′″-yl)pent-4″-ynoylamino]-5-(2′″″-oxopyrrolidin-3′″″-yl)pent-2-enoic Acid Ethyl Ester] | 12500 M⁻¹ s⁻¹ | 1460 nM | – | 1180 nM | – | – | 562 nM | 1090 nM | > 1000 nM | – | > 10 µM | > 10 µM | – | – | > 10 µM | > 10 µM | > 10 µM | > 10 µM | – | 1220 nM | –
